The target of assay [1] is T1, CDK1/Cyclin B1, GST-tag (Homo sapiens, UniProt P06493).
T1 construct: GST
The assay can be described thus: CDK1/Cyclin B1 biochemical phosphorylation assay (Caliper mobility shift). As to conditions: apparent IC50; 1.0 mM ATP or ATP Km; 1.5 nM enzyme; 25° C. The procedure, abridged: (§1)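 Caliper electrophoretic separation of substrate and phosphopeptide gave apparent IC50s. Enzymes: CDK1/Cyclin B1 GST-tag 1.5 nM, CDK2/Cyclin E 1.25 nM; ATP 1.0 mM or at Km; 7.5 µM FL-peptide; pH 7.5 HEPES buffer, 1% DMSO; room temperature until 10–20% phosphorylated, then EDTA quench.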

The target of assay [2] is CDK2/Cyclin E (Homo sapiens, UniProt P24941). The assay can be described thus: CDK2/Cyclin E biochemical phosphorylation assay (Caliper mobility shift). Particulars: apparent IC50; 1.0 mM ATP or ATP Km; 1.25 nM enzyme; 25° C.; read-out: CDK2/cyclin E1 IC50. The procedure, abridged: as §1

T1 sequence (P06493 whole entry): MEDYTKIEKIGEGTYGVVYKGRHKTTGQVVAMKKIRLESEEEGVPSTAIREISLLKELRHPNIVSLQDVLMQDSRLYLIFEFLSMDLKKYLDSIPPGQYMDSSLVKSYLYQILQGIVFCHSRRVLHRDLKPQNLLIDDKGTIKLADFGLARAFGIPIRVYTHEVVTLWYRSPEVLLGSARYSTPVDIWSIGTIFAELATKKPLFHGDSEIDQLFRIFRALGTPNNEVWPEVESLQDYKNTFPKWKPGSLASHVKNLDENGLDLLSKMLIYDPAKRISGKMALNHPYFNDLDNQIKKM
T1 sequence (P14635 whole entry partner): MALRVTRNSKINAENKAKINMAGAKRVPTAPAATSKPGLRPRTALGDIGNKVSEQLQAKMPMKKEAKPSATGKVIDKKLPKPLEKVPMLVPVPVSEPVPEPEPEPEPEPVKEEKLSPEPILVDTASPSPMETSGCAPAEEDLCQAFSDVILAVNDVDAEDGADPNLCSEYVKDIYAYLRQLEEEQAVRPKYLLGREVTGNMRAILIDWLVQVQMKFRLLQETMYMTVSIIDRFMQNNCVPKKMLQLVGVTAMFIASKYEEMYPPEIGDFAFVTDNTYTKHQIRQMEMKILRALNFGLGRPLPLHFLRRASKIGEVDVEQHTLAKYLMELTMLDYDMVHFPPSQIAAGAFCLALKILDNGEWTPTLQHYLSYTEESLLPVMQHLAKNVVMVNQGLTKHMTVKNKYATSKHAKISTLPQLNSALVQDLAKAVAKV

As for `C[C@@H]([C@@H]1COCCO1)n1ncc2ncc(Nc3cc(OC(F)F)[nH]n3)nc21` (single isomer, unassigned) [Example 214], the results for the IC50 in assay [1] and in assay [2] were not below 500 nM and 10 to 20 nM, respectively.

Take `FC(F)Oc1cc(Nc2cnc3cnn(CCc4cn[nH]c4)c3n2)n[nH]1` [Example 129, 1-(2-(1H-pyrazol-4-yl)ethyl)-N-(5-(difluoromethoxy)-1H-pyrazol-3-yl)-1H-pyrazolo[3,4-b]pyrazin-6-amine]: the results for the IC50 in assay [1] and in assay [2] were 100 to 500 nM and not above 10 nM, respectively.

Regarding `C[C@@H]([C@@H]1COCCO1)n1ncc2ncc(Nc3cc(OC(F)F)[nH]n3)nc21` (single isomer, unassigned) [Example 212], the IC50 was not below 500 nM in assay [1] and more than 100 nM in assay [2].

As for `FC(F)Oc1cc(Nc2cnc3cnn(C[C@H]4CCCOC4)c3n2)n[nH]1` (single isomer, unassigned) [Example 142, (S)-N-(5-(difluoromethoxy)-1H-pyrazol-3-yl)-1-((tetrahydro-2H-pyran-3-yl)methyl)-1H-pyrazolo[3,4-b]pyrazin-6-amine or (R)-N-(5-(difluoromethoxy)-1H-pyrazol-3-yl)-1-((tetrahydro-2H-pyran-3-yl)methyl)-1H-pyrazolo[3,4-b]pyrazin-6-amine], the IC50 is 100 to 500 nM in assay [1] and not above 10 nM in assay [2].

For the compound `C[C@@H]([C@H]1CCCOC1)n1ncc2ncc(Nc3cc(OC(F)F)[nH]n3)nc21` (single isomer, unassigned) [Example 216], the IC50 in assay [1] was not below 500 nM; in assay [2] it was 10 to 20 nM.

Take `CC(C)(C1CCOCC1)n1ncc2ncc(Nc3cc(OC(F)F)[nH]n3)nc21` [Example 127, N-(5-(difluoromethoxy)-1H-pyrazol-3-yl)-1-(2-(tetrahydro-2H-pyran-4-yl)propan-2-yl)-1H-pyrazolo[3,4-b]pyrazin-6-amine]: the IC50 is not below 500 nM in assay [1] and 20 to 30 nM in assay [2].

Take `C[C@@H](c1cccnc1F)n1ncc2ncc(Nc3cc(OC(F)F)[nH]n3)nc21` [Example 8, (S)—N-(5-(difluoromethoxy)-1H-pyrazol-3-yl)-1-(1-(2-fluoropyridin-3-yl)ethyl)-1H-pyrazolo[3,4-b]pyrazin-6-amine]: the IC50 in assay [1] is less than 100 nM; in assay [2], not above 10 nM.

As for `Cc1nn(Cc2cccnc2)c2nc(Nc3cc(OC(F)F)[nH]n3)cnc12` [Example 84, N-(5-(difluoromethoxy)-1H-pyrazol-3-yl)-3-methyl-1-(pyridin-3-ylmethyl)-1H-pyrazolo[3,4-b]pyrazin-6-amine], the results for the IC50 in assay [1] and in assay [2] were not below 500 nM and not above 10 nM, respectively.

Turning to `FC(F)Oc1cc(Nc2cnc3cnn(CC4CC4)c3n2)n[nH]1` [Example 80, 1-(cyclopropylmethyl)-N-(5-(difluoromethoxy)-1H-pyrazol-3-yl)-1H-pyrazolo[3,4-b]pyrazin-6-amine], the figures for the IC50 in assay [1] and in assay [2] were not below 500 nM and not above 10 nM, respectively.

In the case of `FC(F)Oc1cc(Nc2cnc3cnn(C[C@H]4COCCO4)c3n2)n[nH]1` [Example 86, (S)-1-((1,4-dioxan-2-yl)methyl)-N-(5-(difluoromethoxy)-1H-pyrazol-3-yl)-1H-pyrazolo[3,4-b]pyrazin-6-amine], the figures for the IC50 in assay [1] and in assay [2] were not below 500 nM and not above 10 nM, respectively.

For the compound `FC[C@H](c1ccccn1)n1ncc2ncc(Nc3cc(OC(F)F)[nH]n3)nc21` (single isomer, unassigned) [Example 16, (S)—N-(5-(difluoromethoxy)-1H-pyrazol-3-yl)-1-(2-fluoro-1-(pyridin-2-yl)ethyl)-1H-pyrazolo[3,4-b]pyrazin-6-amine or (R)—N-(5-(difluoromethoxy)-1H-pyrazol-3-yl)-1-(2-fluoro-1-(pyridin-2-yl)ethyl)-1H-pyrazolo[3,4-b]pyrazin-6-amine], the IC50 in assay [1] was not below 500 nM; in assay [2], not above 10 nM.

For `O[C@H]1CC[C@@H](n2ncc3ncc(Nc4cc(OC(F)F)[nH]n4)nc32)C1` (single isomer, unassigned) [Example 210], the IC50 in assay [1] was not below 500 nM; in assay [2], more than 100 nM.

Turning to `FC(F)Oc1cc(Nc2cnc3cnn(C[C@H]4C[C@@H]4F)c3n2)n[nH]1` (single isomer, unassigned) [Example 160, N-(5-(difluoromethoxy)-1H-pyrazol-3-yl)-1-(((1S,2R)-2-fluorocyclopropyl)methyl)-1H-pyrazolo[3,4-b]pyrazin-6-amine or N-(5-(difluoromethoxy)-1H-pyrazol-3-yl)-1-(((1R,2S)-2-fluorocyclopropyl)methyl)-1H-pyrazolo[3,4-b]pyrazin-6-amine], the values for the IC50 in assay [1] and in assay [2] were not below 500 nM and 20 to 30 nM, respectively.

For `FC(F)Oc1cc(Nc2cnc3cnn(C[C@H]4C[C@@H]5[C@H](C4)C5(F)F)c3n2)n[nH]1` [Example 126, 1-(((1R,3r,5S)-6,6-difluorobicyclo[3.1.0]hexan-3-yl)methyl)-N-(5-(difluoromethoxy)-1H-pyrazol-3-yl)-1H-pyrazolo[3,4-b]pyrazin-6-amine], the IC50 in assay [1] was less than 100 nM; in assay [2], not above 10 nM.

Turning to `C[C@@H]([C@H]1CCOC1)n1ncc2ncc(Nc3cc(OC(F)F)[nH]n3)nc21` (single isomer, unassigned) [Example 12], the IC50 in assay [1] was not below 500 nM; in assay [2], 30 to 100 nM.

Take `OC[C@@H](C1CCOCC1)n1ncc2ncc(Nc3cc(OC(F)F)[nH]n3)nc21` [Example 30, (R)-2-(6-((5-(difluoromethoxy)-1H-pyrazol-3-yl)amino)-1H-pyrazolo[3,4-b]pyrazin-1-yl)-2-(tetrahydro-2H-pyran-4-yl)ethan-1-ol]: the IC50 was not below 500 nM in assay [1] and 20 to 30 nM in assay [2].

Take `C[C@@H](c1cccnc1)n1nc(Cl)c2ncc(Nc3cc(OC(F)F)[nH]n3)nc21` [Example 61, (S)-3-chloro-N-(5-(difluoromethoxy)-1H-pyrazol-3-yl)-1-(1-(pyridin-3-yl)ethyl)-1H-pyrazolo[3,4-b]pyrazin-6-amine]: the IC50 in assay [1] was not below 500 nM; in assay [2], not above 10 nM.

As to `FC(F)Oc1cc(Nc2cnc3cnn(CC4(C(F)(F)F)CCOCC4)c3n2)n[nH]1` [Example 121, N-(5-(difluoromethoxy)-1H-pyrazol-3-yl)-1-((4-(trifluoromethyl)tetrahydro-2H-pyran-4-yl)methyl)-1H-pyrazolo[3,4-b]pyrazin-6-amine], the IC50 in assay [1] is not below 500 nM; in assay [2] it was 30 to 100 nM.

Turning to `C[C@@H](c1ncccc1F)n1ncc2ncc(Nc3cc(OC(F)F)[nH]n3)nc21` [Example 50, (S)-N-(5-(difluoromethoxy)-1H-pyrazol-3-yl)-1-(1-(3-fluoropyridin-2-yl)ethyl)-1H-pyrazolo[3,4-b]pyrazin-6-amine], the results for the IC50 in assay [1] and in assay [2] were not below 500 nM and not above 10 nM, respectively.

As for `Fc1ccccc1Cn1ncc2ncc(Nc3cc(OC(F)F)[nH]n3)nc21` [Example 37, N-(5-(difluoromethoxy)-1H-pyrazol-3-yl)-1-(2-fluorobenzyl)-1H-pyrazolo[3,4-b]pyrazin-6-amine], the IC50 in assay [1] is not below 500 nM; in assay [2], 20 to 30 nM.

As to `C[C@@H](c1cc(Cl)ccn1)n1ncc2ncc(Nc3cc(OC(F)F)[nH]n3)nc21` (single isomer, unassigned) [Example 189, (R)-1-(1-(4-chloropyridin-2-yl)ethyl)-N-(5-(difluoromethoxy)-1H-pyrazol-3-yl)-1H-pyrazolo[3,4-b]pyrazin-6-amine or (S)-1-(1-(4-chloropyridin-2-yl)ethyl)-N-(5-(difluoromethoxy)-1H-pyrazol-3-yl)-1H-pyrazolo[3,4-b]pyrazin-6-amine], the IC50 in assay [1] was not below 500 nM; in assay [2], more than 100 nM.

As to `FC(F)Oc1cc(Nc2cnc3cnn(CC4COC4)c3n2)n[nH]1` [Example 85, N-(5-(difluoromethoxy)-1H-pyrazol-3-yl)-1-(oxetan-3-ylmethyl)-1H-pyrazolo[3,4-b]pyrazin-6-amine], the values for the IC50 in assay [1] and in assay [2] were not below 500 nM and 10 to 20 nM, respectively.

As to `COc1ncccc1[C@H](C)n1ncc2ncc(Nc3cc(OC(F)F)[nH]n3)nc21` [Example 59, (S)-N-(5-(difluoromethoxy)-1H-pyrazol-3-yl)-1-(1-(2-methoxypyridin-3-yl)ethyl)-1H-pyrazolo[3,4-b]pyrazin-6-amine], the figures for the IC50 in assay [1] and in assay [2] were not below 500 nM and not above 10 nM, respectively.

Turning to `FC(F)Oc1cc(Nc2cnc3cnn(C4CCOCC4)c3n2)n[nH]1` [Example 83, N-(5-(difluoromethoxy)-1H-pyrazol-3-yl)-1-(tetrahydro-2H-pyran-4-yl)-1H-pyrazolo[3,4-b]pyrazin-6-amine], the IC50 in assay [1] is not below 500 nM; in assay [2] it was not above 10 nM.

In the case of `CC1(Cn2ncc3ncc(Nc4cc(OC(F)F)[nH]n4)nc32)CC1` [Example 98, N-(5-(difluoromethoxy)-1H-pyrazol-3-yl)-1-((1-methylcyclopropyl)methyl)-1H-pyrazolo[3,4-b]pyrazin-6-amine], the IC50 in assay [1] is not below 500 nM; in assay [2] it was 10 to 20 nM.

On to `C[C@H]([C@@H]1CCOC1)n1ncc2ncc(Nc3cc(OC(F)F)[nH]n3)nc21` (single isomer, unassigned) [Example 11], for which the IC50 in assay [1] was not below 500 nM; in assay [2], 20 to 30 nM.

Take `FC(F)Oc1cc(Nc2cnc3cnn(C[C@@H]4[C@@H]5COC[C@@H]54)c3n2)n[nH]1` [Example 111, 1-(((1R,5S,6r)-3-oxabicyclo[3.1.0]hexan-6-yl)methyl)-N-(5-(difluoromethoxy)-1H-pyrazol-3-yl)-1H-pyrazolo[3,4-b]pyrazin-6-amine]: the values for the IC50 in assay [1] and in assay [2] were not below 500 nM and not above 10 nM, respectively.

In the case of `COc1cc(Nc2cnc3cnn(CC4CCOCC4)c3n2)n[nH]1` [Example 92, N-(5-methoxy-1H-pyrazol-3-yl)-1-((tetrahydro-2H-pyran-4-yl)methyl)-1H-pyrazolo[3,4-b]pyrazin-6-amine], the IC50 in assay [1] is not below 500 nM; in assay [2], not above 10 nM.

The values above are taken from patent US11970498B2, “CDK2 inhibitors” (BLUEPRINT MEDICINES CORPORATION, priority 2021, dated 2024).
